Assay results reported in patent publication EP1344776A1, “5- 2-hydroxy-3-[1-(3-trifluoromethylphenyl)-cyclopropyl]-propionylamino -phtalide and 6- 2-hydroxy-3-[1-(3-trifluoromethylphenyl)-cyclopropyl]-propionylamino -4-methyl-2,3-benzoxazin-1-one derivatives with progesterone receptor modulating activity for use in fertility control, hormone replacement …” (Schering Aktiengesellschaft, priority 2002, dated 2003).

Columns and labels:
[1] = test system: Pregnant rats (Wistar Han, SPF); test: Pregnancy maintenance test in rat; format: in vivo
Source text: In rats, castration induces termination of pregnancy. Progestins (combined with estrogens) are capable of maintaining pregnancy in castrated animals. However, the degree of pregnancy maintenance in castrated rats is optimal only in a defined dose range. Therefore, higher as well as lower doses generally induce a weaker effect. Accompanying treatment with defined doses of estrone (E1) increases the pregnancy maintaining effect of progestins.
Pregnant rats (Wistar Han, SPF) of 190 to 220 g (5 to 8 animals per dose) are ovariectomized on day 8 of pregnancy, 2 hours after the first substance administration. From day 8 to day 14, rats are daily treated with test progestin in combination with a standard dose of E1. One day later, animals are killed with carbon dioxide. For each animal, the number of living and dead fetuses is determined according to the heartbeat of the embryos. In case of empty uteri, the number of implantation sites is determined by means of staining with a 10 % ammonium sulfide solution.
S.c. (subcutaneous) application: The test progestin is dissolved in benzyl benzoate/castor oil (1+4 v/v), and the daily dose is administered in a volume of 1 ml/kg body weight.
P.o. (peroral) application: The test progestin is suspended in a carrier liquid (85 mg Myrj^R in 100 ml 0.9 % w/v NaCl solution), and the daily dose is administered in a volume of 2 ml/kg body weight.
I.p. (intraperitoneal) application: The test progestin is dissolved in propylene glycol and charged in miniature osmotic pumps (type 2001, 1.0 µl/h, 7 days), which are placed in the abdominal cavity of the rat.
The standard dose of estrone is 0.005 mg/kg body weight s.c. and is dissolved in benzyl benzoate/castor oil ([…]).
It is determined the pregnancy maintenance per animal [%], the pregnancy maintenance per dose (median of single values) and the ED50 (dose, at which pregnancy is maintained in 50 % of the animals; 100 % corresponds to control animals that are not ovariectomized).

hPR-A = test: PR-A transcription assay (MTV-LUC reporter, SK-N-MC cells); format: cell-based, human; conditions: 10^-7 mol/l test compound relative to R5020 10^-7 mol/l, 24 hours, 0.1 µM
Procedure: The method for screening for PR isoform-specific progestins according to the present invention is carried out with first and second SK-N-MC cells stably transfected with a plasmid expressing the hPR-A (first cells) or the hPR-B (second cells) and the LUC reporter gene linked to the hormonally responsive MTV promoter.
For the transcription assay, the cells are seeded onto 96-well dishes (2x 10^4 cells/dish) and cultured in a medium as described above, with the exception that the FCS is replaced by a 3 % charcoal stripped FCS. 48 hours later, cells are contacted with prediluted test compounds. For determination of agonistic activity, cells are cultured in the presence of increasing concentrations (10^-6 to 10^-11 mol/l) of test progestins. As a positive control for reporter gene induction cells are treated with 10^-6 to 10^-11 mol/l R5020 (promegestone). As a negative control for reporter gene induction, cells are cultured in 1 % ethanol.
Evaluation of the response gives the efficacy [%], and evaluation of the EC50 values gives the potency [nM]. Calculation of the agonistic activity is conducted as follows:
The LUC activity [%] for the measured data points is calculated as follows: relative LUC activity [%] = 100 x((response 10)^-6 (to 10)^-11 mol/l test compound - CO)/(CI - CO) [formula] wherein CI = 100 % stimulation (R5020, 10^-7 mol/l) and CO = 0 % stimulation (ethanol, 1 %).
Thus, the efficacy [%] is calculated according to: efficacy [%] = 100 x((response 10)^-7 mol/l test compound - CO)/(CI - CO) [formula]
The potency [nM], i.e. the EC50, is determined graphically.

[2] = target: T1, mineralocorticoid receptor (MR) (Homo sapiens, UniProt P08235); test: Mineralocorticoid receptor binding; conditions: in vitro
T1 sequence (P08235 1-984): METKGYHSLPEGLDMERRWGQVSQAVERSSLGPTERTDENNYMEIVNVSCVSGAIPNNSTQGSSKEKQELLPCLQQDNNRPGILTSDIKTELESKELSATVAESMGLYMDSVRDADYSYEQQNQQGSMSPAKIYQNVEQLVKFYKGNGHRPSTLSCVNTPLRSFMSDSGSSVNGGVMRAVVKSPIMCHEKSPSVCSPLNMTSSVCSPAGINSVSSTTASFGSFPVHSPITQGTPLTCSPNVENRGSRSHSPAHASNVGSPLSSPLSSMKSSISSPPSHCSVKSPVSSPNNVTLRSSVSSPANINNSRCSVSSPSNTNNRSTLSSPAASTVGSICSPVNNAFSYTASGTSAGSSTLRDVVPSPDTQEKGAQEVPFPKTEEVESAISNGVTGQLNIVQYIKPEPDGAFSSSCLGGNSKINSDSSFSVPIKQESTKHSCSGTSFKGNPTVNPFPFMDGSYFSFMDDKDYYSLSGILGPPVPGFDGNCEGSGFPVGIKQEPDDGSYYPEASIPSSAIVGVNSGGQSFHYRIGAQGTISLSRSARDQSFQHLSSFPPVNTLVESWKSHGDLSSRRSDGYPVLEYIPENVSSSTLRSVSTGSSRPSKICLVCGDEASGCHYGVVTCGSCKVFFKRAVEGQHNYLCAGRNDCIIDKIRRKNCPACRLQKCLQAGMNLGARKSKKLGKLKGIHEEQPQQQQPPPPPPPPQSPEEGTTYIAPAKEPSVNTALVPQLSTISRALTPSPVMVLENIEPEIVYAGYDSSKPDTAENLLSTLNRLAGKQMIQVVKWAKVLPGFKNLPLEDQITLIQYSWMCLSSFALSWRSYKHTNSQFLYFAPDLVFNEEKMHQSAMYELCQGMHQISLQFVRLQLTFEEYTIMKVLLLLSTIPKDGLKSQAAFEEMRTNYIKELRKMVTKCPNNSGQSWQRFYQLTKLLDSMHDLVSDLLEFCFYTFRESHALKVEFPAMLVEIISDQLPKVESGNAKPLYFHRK

affinity for the mineralocorticoid receptor (MR) [2]: negligible
SMILES: O=C1OCc2cc(NC(=O)C(O)(CC3(c4cc(C(F)(F)F)ccc4F)CC3)C(F)(F)F)ccc21 (single isomer, unassigned; (+)) [((+)-1), (+)-5-{2-hydroxy-3-[1-(2-fluoro-5-trifluoromethylphenyl)-cyclopropyl]-2-trifluoromethyl-propionylamino}-phthalide]
Maintenance of pregnancy (rat) [ED50] ([1]; ovariectomized pregnant rats, with estrone): 0.012 mg/kg
potency compared to levonorgestrel (LNG), pregnancy maintenance test ([1]; rat, times more potent than LNG): about 10
androgenic activity in pregnancy maintenance test ([1]; rats, dose 100 times higher than the dose required for maintaining pregnancy): no androgenic activity
PR-A agonism efficacy (hPR-A): 88.7%
